Measured values taken from patent US20240173432A1, “Compositions and Methods for Treatment of Myotonic Dystrophy Type 1 with CRISPR/SluCas9” (Vertex Pharmaceuticals Incorporated, priority 2021, published 2024).

Columns and labels:
[1] = tested on: 3′ UTR of the human DMPK gene; assay: Single-cut screening: indel editing efficiency by Sanger sequencing and ICE analysis in primary DM1 patient myoblasts; type: cell-based; settings: vehicle-treated samples; for Indel efficiency: single SluCas9 sgRNA RNP in primary DM1 patient myoblasts, Sanger sequencing and ICE analysis
Method in brief: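 Indels were estimated by ICE from Sanger chromatograms of PCR amplicons covering the DMPK 3′ UTR wild-type allele, using only vehicle-treated samples; sgRNAs with R2<0.9 are flagged. Samples came from primary DM1 patient myoblasts (2 × 10^5) harvested 72 h after nucleofection with 30 pmol SluCas9 and 90 pmol single sgRNA RNP.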

[2] = tested on: CUG foci in primary DM1 patient myoblasts; assay: Single-cut screening: FISH staining of CUG RNA foci; type: cell-based, human; settings: single sgRNA, primary DM1 patient myoblasts; for % of CUG foci free nuclei (DNA-PKi): DNA-PKi treated
Method in brief: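 CD56-purified primary DM1 patient myoblasts nucleofected with SluCas9:sgRNA RNP (30:90 pmol, single-cut), then DMSO or 3 μM DNA-PK inhibitor for 48 h. At 72 h post-nucleofection, cells fixed and stained for CUG foci with Cy3-PNA(CAG)5 probe (1 ng/μL, 80 °C), co-stained for MBNL1 and Hoechst, imaged by high-content confocal microscopy.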

[3] = tested on: CAG foci in primary DM1 patient myoblasts; assay: Single-cut screening: CAG foci staining; type: cell-based, human; settings: single sgRNA; for % of CAG foci positive nuclei (DNA-PKi): DNA-PKi treated
Method in brief: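 Primary DM1 patient myoblasts were PFA-fixed and hybridized with […] (1 ng/μL, 15 min at 80° C) in 30% formamide/2×SSC, followed by anti-MBNL1 immunostaining and Hoechst counterstain. CAG RNA foci were quantified by high-content confocal imaging after single-cut SuCas9 sgRNA editing.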

| Substance | Indel efficiency [1] [%] | % of CUG foci free nuclei (DNA-PKi) [2] [%] | % of CUG foci free nuclei (Vehicle) [2] [%] | % of CAG foci positive nuclei (DNA-PKi) [3] [%] | % of CAG foci positive nuclei (Vehicle) [3] [%] | indel efficiency (Sanger sequencing and ICE analysis) ([1]; single-cut, SluCas9 RNP, 72 hrs post nucleofection, wild-type allele) |
| --- | --- | --- | --- | --- | --- | --- |
| GATCACAGACCATTTCTTTCTT (guide RNA; chemistry not fully specified) [SluD01] | 0 | 17.29 | 18.45 | 1.34 | 0.79 | – |
| GATGGAGGGCCTTTTATTCGCG (guide RNA; chemistry not fully specified) [SluD98] | 0 | 11.71 | 11.21 | 1.47 | 0.84 | – |
| GCACTTTGCGAACCAACGATAG (guide RNA; chemistry not fully specified) [SluD28] | 48 | 31.88 | 11.31 | 1.29 | 1.23 | – |
| GCCCAGCTCCAGTCCTGTGATC (guide RNA; chemistry not fully specified) [SluU28] | 17 | 36.78 | 10.14 | 1.64 | 1.15 | – |
| GCCCCAGCCGGCTCCGCCCGCT (guide RNA; chemistry not fully specified) [SluD55] | 41 | 34.69 | 15.71 | 2.92 | 3.01 | – |
| GCCCCCTAGCggccggggaggg (guide RNA; as printed in the source, key not given here) [SluU42] | 15 | 42.7 | 7.05 | 1.62 | 0.86 | – |
| GCCCCGGAGTCGAAGACAGTTC (guide RNA; chemistry not fully specified) [SluU05] | 65 | 61.16 | 26.37 | 1.64 | 1.53 | – |
| GCCCCGGGCACTCAGTCTTCCA (guide RNA; chemistry not fully specified) [SluU13] | 27 | 43.12 | 17.02 | 1.07 | 1.11 | – |
| GCCCGCCCCCTAGCggccgggg (guide RNA; as printed in the source, key not given here) [SluU40] | 3 | 25.77 | 15.29 | 2.01 | 1 | – |
| GCCCGGATCACAGGACTGGAGC (guide RNA; chemistry not fully specified) [SluU30] | 48 | 46.16 | 26.92 | 2.14 | 0.67 | – |
| GCCTGTCAGCGAGTCGGAGGAC (guide RNA; chemistry not fully specified) [SluD66] | 28 | 30.48 | 13.03 | 1.94 | 1.41 | – |
| GCGCGATCTCTGCCTGCTTACT (guide RNA; chemistry not fully specified) [SluD37] | 25 | 31.69 | 6.89 | 2.15 | 1.76 | – |
| GCGCGGCTTCTGTGCCGTGCCC (guide RNA; chemistry not fully specified) [SluU15] | 4 | 31.71 | 7.97 | 1.28 | 0.75 | – |
| GCGGTTGTGAACTGGCAGGCGG (guide RNA; chemistry not fully specified) [SluU18] | 14 | 48.57 | 9.74 | 1.24 | 1.1 | – |
| GCTAGGGGGCGGGCCCGGATCA (guide RNA; chemistry not fully specified) [SluU34] | 53 | 63.08 | 19.95 | 1.03 | 0.78 | – |
| GCTCGGAGCGGTTGTGAACTGG (listed as DNA, chemistry not fully specified) [SluU21] | 80 | 54.83 | 23.65 | 0.66 | 0.68 | high editing IN4DEL efficiency |
| GCTTTTGCCAAACCCGCTTTTT (guide RNA; chemistry not fully specified) [SluD40] | 5 | 23.44 | 8.9 | 1.46 | 1.68 | – |
| GGCCCGCCCCCTAGCggccggg (guide RNA; as printed in the source, key not given here) [SluU38] | 2 | 32.86 | 7.24 | 1.56 | 0.68 | – |
| GGCCCGGATCACAGGACTGGAG (guide RNA; chemistry not fully specified) [SluU31] | 29 | 40.74 | 14.2 | 1.62 | 0.94 | – |
| GGCCTTTTATTCGCGAGGGTCG (guide RNA; chemistry not fully specified) [SluD94] | 30 | 27.23 | 18.18 | 1.32 | 1 | – |
| GGCGCGATCTCTGCCTGCTTAC (guide RNA; chemistry not fully specified) [SluD36] | 52 | 29.02 | 13.52 | 2.32 | 3.24 | – |
| GGCGCGGCTTCTGTGCCGTGCC (guide RNA; chemistry not fully specified) [SluU16] | 7 | 27.5 | 10.73 | 1.73 | 1.28 | – |
| GGGCCTTTTATTCGCGAGGGTC (guide RNA; chemistry not fully specified) [SluD95] | 28 | 27.23 | 21.81 | 2.19 | 1.3 | – |
